Test results: patent US12116357B2, “Heteroaryl-triazole and heteroaryl-tetrazole compounds as pesticides” (Bayer Aktiengesellschaft, priority 2018, dated 2024)

Tests used:
Format in all cases: in vivo
Spodoptera frugiperda = Spodoptera frugiperda spray test; settings: 168 h
How it was run: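 Maize leaf sections were sprayed with compound formulated in acetone/DMF and diluted in water containing 1000 ppm emulsifier, then infested with fall armyworm larvae once dry. Percent mortality was scored after 7 days.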

Meloidogyne incognita = Meloidogyne incognita test; settings: 20 ppm, after 14 days
Experimental: • Solvent: 125.0 parts by weight of acetone
To produce a suitable preparation of active compound, 1 part by weight of active compound is mixed with the stated amount of solvent, and the concentrate is diluted with water to the desired concentration.
Vessels are filled with sand, a solution of the active ingredient, a suspension containing eggs and larvae of the southern root-knot nematode (Meloidogyne incognita) and salad seeds. The salad seeds germinate and the seedlings grow. Galls develop in the roots.
After 14 days the nematicidal activity is determined on the basis of the percentage of gall formation. 100% means no galls were found and 0% means the number of galls found on the roots of the treated plants was equal to that in untreated control plants.

Phaedon cochleariae = Phaedon cochleariae spray test; settings: 168 h, after 7 days
How it was run: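 Chinese cabbage leaf disks sprayed with compound in acetone/DMF diluted in water with 1000 ppm alkylarylpolyglycol ether emulsifier, then infested with mustard beetle larvae once dry. Mortality (%) scored after 7 days; 100% = all larvae killed, 0% = none.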

Myzus persicae [1] = assay: Myzus persicae oral test; settings: 120 h
How it was run: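 Mixed-population aphids feed through parafilm on compound solution (acetone concentrate diluted with water) combined with IPL41 insect medium (33%+15% sugar). Mortality (%) read after 5 days, 100% meaning all aphids killed.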

Ctenocephalides felis [2] = assay: Ctenocephalides felis oral test; settings: 48 h, 100 ppm in cattle blood, after 2 days
How it was run: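 Adult unfed cat fleas (~20) fed through parafilm on cattle blood containing compound (DMSO concentrate diluted in blood); blood held at 37° C., fleas at room temperature. Mortality (%) scored after 2 days.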

Boophilus microplus = Boophilus microplus injection test; settings: Rhipicephalus microplus, 168 h, 20 μg/animal, egg deposition after 7 days, read-out: efficacy (infertile eggs)
How it was run: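 Engorged adult female ticks, five per test, received a 1 μl abdominal injection of compound in DMSO, then were kept in a climate chamber. Fertile egg deposition checked after 7 days, with unclear eggs held until hatching at about 42 days. Efficacy 100% means all eggs infertile, 0% all fertile.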

[3] = tested on: Blattella germanica strain PAULINIA; assay: Blattella germanica test (surface treatment & contact assay); settings: 24 hours after contact, read-out: efficacy (mortality); for mortality at 4 mg/m2: surface concentration 4 mg/m^2, 30 min exposure; for mortality at 20 mg/m2: surface concentration 20 mg/m^2, 30 min exposure
Experimental: (§1) • Solvent: Aceton+2000 ppm rapeseed oil methyl ester (RME)
In order to produce a sufficient, active ingredient containing solution it is necessary to solve the test compound in the solvent-mix (acetone at 2 mg/ml/RME 2000 ppm). This solution is pipetted onto a glazed tile and after evaporation of the acetone, adult animals of the species Blattella germanica strain […] are placed onto the dried surface. The exposure time is 30 minutes.
(§2) Mortality in percent (%) is determined 24 hours after contact of the insects to the treated surface. 100% mortality means that all tested insects are dead, whereas 0% means that no insect died.

Ctenocephalides felis [4] = assay: Ctenocephalides felis in-vitro contact test, adult cat flea; settings: 5 μg/cm^2, after 48 hours, read-out: efficacy (fleas dead or moribund)
How it was run: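 Compound in acetone coated on glass tube walls (900 ppm solution, 5 μg/cm^2), solvent evaporated, then 5-10 adult fleas added and kept at room temperature. At 48 h, fleas put on a 45-50 °C plate for up to 5 min; those unable to climb scored dead or moribund, efficacy as % affected.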

[5] = tested on: Culex quinquefasciatus strain P00; assay: Culex quinquefasciatus test (surface treatment & contact assay); settings: 24 hours after contact, read-out: efficacy (mortality); for mortality at 4 mg/m2: surface concentration 4 mg/m^2, 30 min exposure; for mortality at 20 mg/m2: surface concentration 20 mg/m^2, 30 min exposure
Experimental: as §1
(§3) In order to produce a sufficient, active ingredient containing solution it is necessary to solve the test compound in the solvent-mix (acetone at 2 mg/ml/RME 2000 ppm). This solution is pipetted onto a glazed tile and after evaporation of the acetone, adult mosquitoes of the species Culex quinquefasciatus strain P00 are placed onto the dried surface. The exposure time is 30 minutes.
as §2

[6] = tested on: Musca domestica strain WHO-N; assay: Musca domestica test (surface treatment & contact assay); settings: 24 hours after contact, read-out: efficacy (mortality); for mortality at 4 mg/m2: surface concentration 4 mg/m^2, 30 min exposure; for mortality at 20 mg/m2: surface concentration 20 mg/m^2, 30 min exposure
How it was run: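 Test compound dissolved in acetone (2 mg/ml) with 2000 ppm RME, applied to glazed tile and acetone evaporated. Adult flies placed on dried surface for 30 min exposure. Mortality (%) scored 24 h after contact; 100% means all insects dead.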

[7] = tested on: Aedes aegypti strain MONHEIM; assay: Aedes aegypti test (surface treatment & contact assay); settings: 24 hours after contact, read-out: efficacy (mortality); for mortality at 4 mg/m2: surface concentration 4 mg/m^2, 30 min exposure; for mortality at 20 mg/m2: surface concentration 20 mg/m^2, 30 min exposure
How it was run: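 Compound dissolved in acetone (2 mg/ml) with 2000 ppm rapeseed oil methyl ester, applied to glazed tile and acetone evaporated; adult mosquitoes exposed on the dried surface for 30 min. Percent mortality scored 24 h after contact.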

Nezara viridula = Nezara viridula spray test; settings: 96 h
How it was run: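 Barley plants infested with N. viridula larvae sprayed with compound in acetone/DMF diluted in water with 1000 ppm emulsifier at the desired concentration. Mortality (%) scored after 4 days; 100% means all bugs killed.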

Nilaparvata lugens = Nilaparvata lugens spray test; settings: 96 h
How it was run: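 Rice plants were sprayed with compound formulated in acetone/dimethylformamide and diluted in water containing alkylarylpolyglycol ether emulsifier, then infested with brown planthoppers. Percent mortality was scored after 4 days, where 100% means all insects killed.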

Myzus persicae [8] = assay: Myzus persicae spray test; settings: 120 h
Experimental: (§4) • Solvent: 78.0 parts by weight acetone • 1.5 parts by weight dimethylformamide • Emulsifier: alkylarylpolyglycol ether
(§5) To produce a suitable preparation of active compound, 1 part by weight of active compound is mixed with the stated amount of solvents and is diluted with water, containing an emulsifier concentration of 1000 ppm, to the desired concentration. Further test concentrations are prepared by dilution with emulsifier containing water.
Chinese cabbage (Brassica pekinensis) leaf disks infected with all instars of the green peach aphid (Myzus persicae), are sprayed with a preparation of the active ingredient of the desired concentration.
After 5 days mortality in % is determined. 100% means all aphids have been killed and 0% means none of the aphids have been killed.

[9] = tested on: Anopheles funestus strain FUMOZ-R; assay: Anopheles funestus test (surface treatment & contact assay); settings: surface concentration 20 mg/m^2, 30 min exposure, 24 hours after contact, read-out: efficacy (mortality)
Experimental: as §1
as §3, with “Anopheles funestus” for “Culex quinquefasciatus”, “FUMOZ-R (Hunt et al., Med. Vet. Entomol. 2005 September; 19(3): 271-275)” for “P00”
as §2

[10] = tested on: Tetranychus urticae (OP-Resistant); assay: Tetranychus urticae (OP-resistant) spray test; settings: 144 h, after 6 days
Experimental: as §4, §5
French bean (Phaseolus vulgaris) leaf disks infected with all instars of the two spotted spidermite (Tetranychus urticae), are sprayed with a preparation of the active ingredient of the desired concentration.
After 6 days mortality in % is determined. 100% means all spider mites have been killed and 0% means none of the spider mites have been killed.

[11] = tested on: cattle ticks (Boophilus microplus) strane Parhurst, SP-resistant; assay: Boophilus microplus dip test; settings: 100 ppm, egg deposition after 7 days
Experimental: • Test animal: cattle ticks (Boophilus microplus) strane Parhurst, SP-resistant • Solvent: dimethyl sulfoxide
To produce a suitable preparation of active compound, 10 mg of active compound are dissolved in 0.5 ml solvent, and the concentrate is diluted with water to the desired concentration.
This compound solution is pipetted into tubes. 8-10 engorged, adult, female cattle ticks (Boophilus microplus) are placed in perforated tubes. These tubes are immersed in the aqueous compound solution until the ticks are completely moistened. After the liquid has drained off, the ticks are transferred to a filter paper in a plastic tray and stored in a climate chamber.
After 7 days egg deposition of fertile eggs is monitored. Eggs where fertility is not visible are stored in a climate chamber till hatching after about 42 days. An efficacy of 100% means all eggs are infertile; 0% means all eggs are fertile.

Row | SMILES | mortality at 500 g/ha (Spodoptera frugiperda) [%] | mortality at 500 g/ha (Phaedon cochleariae) [%] | mortality at 4 ppm (Myzus persicae [1]) [%] | mortality at 20 ppm (Myzus persicae [1]) [%] | mortality at 100 ppm (Ctenocephalides felis [2]) [%] | pest or weed control at 0.02 mg (Boophilus microplus) [%] | mortality at 20 mg/m2 [3] [%] | pest or weed control at 5 µg/cm2 (Ctenocephalides felis [4]) [%] | mortality at 4 mg/m2 [6] [%] | mortality at 20 mg/m2 [6] [%] | mortality at 20 mg/m2 [7] [%] | mortality at 500 g/ha (Nezara viridula) [%] | mortality at 500 g/ha (Nilaparvata lugens) [%] | further results
1 | CC(c1ncnn1-c1ncccn1)N(C(=O)c1cc(Cl)cc(C(F)(F)F)c1)C1CC1 (centres unmarked) [Example I-002] | 100 | 83 | – | – | – | – | – | – | – | – | – | – | – | nematicidal activity (gall formation) (Meloidogyne incognita): 100%
2 | CC(c1ncnn1-c1ncccn1)N(CCS(C)(=O)=O)C(=O)c1cc(Cl)cc(C(F)(F)F)c1 (centres unmarked) [Example I-022] | 100 | 100 | 100 | 100 | 100 | 100 | 80 to 100 | 100 | 90 to 100 | 90 to 100 | 90 to 100 | – | – | mortality at 4 mg/m2 [3]: 80 to 100%; mortality at 4 mg/m2 [5]: 85 to 100%; mortality at 20 mg/m2 [5]: 90 to 100%; mortality at 4 mg/m2 [7]: 80 to 100%
3 | CC(c1ncnn1-c1ncccn1)N(CC1CS(=O)(=O)C1)C(=O)c1cc(Cl)cc(C(F)(F)F)c1 (centres unmarked) [Example I-004] | 100 | 100 | 100 | 100 | 100 | 100 | 80 to 100 | – | 90 to 100 | 90 to 100 | 90 to 100 | 100 | 100 | mortality at 4 mg/m2 [3]: 80 to 100%; mortality at 500 g/ha (Myzus persicae [8]): 100%
4 | CC(c1ncnn1-c1ncccn1)N(C(=O)c1cc(Cl)cc(C(F)(F)F)c1)C1COC1 (centres unmarked) [Example I-021] | 83 | 100 | 100 | 100 | 100 | 100 | 80 to 100 | 100 | – | 90 to 100 | 90 to 100 | 100 | – | mortality at 4 mg/m2 [7]: 80 to 100%
5 | CSCCN(C(=O)c1cc(Cl)cc(S(C)(=O)=O)c1)C(C)c1ncnn1-c1ccc(C#N)cn1 (centres unmarked) [Example I-035] | 100 | – | 100 | – | – | – | – | 100 | 90 to 100 | 90 to 100 | 90 to 100 | 100 | 90 | mortality at 20 mg/m2 [9]: 85 to 100%; mortality at 4 mg/m2 [5]: 85 to 100%; mortality at 20 mg/m2 [5]: 90 to 100%; mortality at 500 g/ha [10]: 90%; mortality at 500 g/ha (Myzus persicae [8]): 90%
6 | CC(c1ncnn1-c1ncccn1)N(Cc1ccccn1)C(=O)c1cc(Cl)cc(C(F)(F)F)c1 (centres unmarked) [Example I-001, 3-Chloro-N-(pyridin-2-ylmethyl)-N-{1-[1-(pyrimidin-2-yl)-1H-1,2,4-triazol-5-yl]ethyl}-5-(trifluoromethyl)benzamide] | 100 | 100 | 100 | 100 | 100 | 100 | – | 100 | 90 to 100 | 90 to 100 | 90 to 100 | 100 | 90 | nematicidal activity (gall formation) (Meloidogyne incognita): 90%; mortality at 500 g/ha [10]: 95%
7 | CC(c1ncnn1-c1ncccn1)N(CCc1ccc(F)cc1)C(=O)c1cc(Cl)cc(C(F)(F)F)c1 (centres unmarked) [Example I-003] | 100 | 100 | 100 | 100 | 100 | 100 | – | – | 90 to 100 | 90 to 100 | 90 to 100 | 100 | 100 | efficacy (infertile eggs) [11]: 100%
